The target in test [1] is human orexin receptor 2 (Homo sapiens (Human), UniProt O43614). Description: Orexin antagonist activity, intracellular calcium FLIPR assay (orexin receptor 2). In kind it is cell-based. The conditions noted are these: RBL-2H3 cells stably expressing human orexin receptor 2; Ca2+ dye FLIPR; compound 15 minutes before orexin-A at approximately 80% maximal response; read-out: Human Orexin2R IC50. The procedure, abridged:
(§1)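 RBL-2H3 cells stably expressing human OX1 or OX2 were loaded with Calcium 5 dye for 1 h at 37 °C. Compounds were added 15 min before orexin-A at a concentration giving ~80% maximal response, and Ca2+ fluorescence was read by FLIPR.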
(A change in cytosolic calcium serves as a functional read-out for many receptors and channels.)

Test [2] concerns the target human orexin receptor 1 (Homo sapiens (Human), UniProt O43613). Description: Orexin antagonist activity, intracellular calcium FLIPR assay (orexin receptor 1). The conditions noted are these: RBL-2H3 cells stably expressing human orexin receptor 1; Ca2+ dye FLIPR; compound 15 minutes before orexin-A at approximately 80% maximal response; read-out: Human Orexin1R IC50. It counts as cell-based. The procedure, abridged: as §1

Some results are limits rather than exact numbers.

human orexin receptor 2, sequence (O43614 whole entry): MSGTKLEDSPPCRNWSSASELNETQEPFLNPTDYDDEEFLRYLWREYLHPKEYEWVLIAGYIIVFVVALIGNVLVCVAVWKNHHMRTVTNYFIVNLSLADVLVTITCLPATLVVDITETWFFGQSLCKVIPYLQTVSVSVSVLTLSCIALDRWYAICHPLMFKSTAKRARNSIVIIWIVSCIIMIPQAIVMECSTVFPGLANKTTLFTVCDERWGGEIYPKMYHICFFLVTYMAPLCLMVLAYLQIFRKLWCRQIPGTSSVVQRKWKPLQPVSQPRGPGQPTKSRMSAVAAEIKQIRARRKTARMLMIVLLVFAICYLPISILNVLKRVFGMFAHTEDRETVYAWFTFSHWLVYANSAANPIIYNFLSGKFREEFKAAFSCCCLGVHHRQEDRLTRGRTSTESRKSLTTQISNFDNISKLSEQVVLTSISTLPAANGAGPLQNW
human orexin receptor 1, sequence (O43613 whole entry): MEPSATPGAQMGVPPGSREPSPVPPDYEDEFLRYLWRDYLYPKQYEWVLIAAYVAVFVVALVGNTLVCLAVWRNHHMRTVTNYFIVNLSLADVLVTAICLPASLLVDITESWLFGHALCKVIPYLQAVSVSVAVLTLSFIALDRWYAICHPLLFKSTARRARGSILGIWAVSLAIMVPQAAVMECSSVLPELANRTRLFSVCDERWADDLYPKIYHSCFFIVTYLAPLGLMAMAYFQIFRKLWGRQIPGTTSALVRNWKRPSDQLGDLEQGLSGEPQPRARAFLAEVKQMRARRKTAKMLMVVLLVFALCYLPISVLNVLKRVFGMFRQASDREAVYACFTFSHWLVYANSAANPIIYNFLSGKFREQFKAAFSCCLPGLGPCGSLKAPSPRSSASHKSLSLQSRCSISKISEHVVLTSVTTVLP

On to `COc1cccc(OC)c1C(=O)N[C@H]1CC(F)C[C@H]1Nc1nc2ccc(Cl)cc2s1` (stereo in doubt) [Example 26, N-[(1S,2R)-2-[(6-Chloro-1,3-benzothiazol-2-yl)amino]-4-fluorocyclo-pentyl]-2,6-dimethoxybenzamide], for which the IC50 (in general, the midpoint of a concentration-inhibition curve) in test [1] was above 10 µM; in test [2] it was 64 nM.
As for `COc1cccc(OC)c1C(=O)N[C@@H]1CCC[C@H]1Nc1nc2ccccc2o1` [Example 12, N-[(1R,2R)-2-[(1,3-Benzoxazol-2-yl)amino]cyclopentyl]-2,6-dimethoxy-benzamide], the IC50 in test [1] was found to be 3.5 µM; in test [2], 470 nM.
On the same counts, the results for `COc1cccc(OC)c1C(=O)N[C@H]1CCC[C@@H]1Nc1nc2cc(F)ccc2o1` [Example 85, N-[(1S,2S)-2-[(5-Fluoro-1,3-benzoxazol-2-yl)amino]cyclopentyl]-2,6-dimethoxybenzamide] are above 10 µM and 23 nM.
`Cc1noc(-c2ccccc2C(=O)N(C)[C@H]2CCC[C@@H]2Nc2nc3ccc(F)cc3s2)n1` [Example 83, N-[(1S,2S)-2-[(6-Fluoro-1,3-benzothiazol-2-yl)amino]cyclopentyl]-N-methyl-2-(3-methyl-1,2,4-oxadiazol-5-yl)benzamide]: the IC50 in test [1] stood at 1.2 µM; in test [2] it was 1 nM.
For the molecule `COc1cccc(OC)c1C(=O)N[C@H]1CCC[C@@H]1Nc1nc2ccccc2o1` [Example 9, N-[(1S,2S)-2-[(1,3-Benzoxazol-2-yl)amino]cyclopentyl]-2,6-dimethoxy-benzamide], the results for the 50% inhibitory concentration (IC50) in test [1] and in test [2] were above 10 µM and 99 nM, respectively.
Turning to `COc1cccc(OC)c1C(=O)NC1CN(C(=O)OCc2ccccc2)CC1Nc1nc2ccc(Cl)cc2s1` (stereo not drawn) [Example 22, Benzyl cis-3-[(6-chloro-1,3-benzothiazol-2-yl)amino]-4-[(2,6-dimethoxybenzene)amido]pyrrolidine-1-carboxylate], the results for the IC50 in test [1] and in test [2] were 8.6 µM and 23 nM, respectively.
Regarding `O=C(N[C@H]1CCC[C@@H]1Nc1nc2ccc(F)cc2s1)c1c(Cl)cccc1-n1nccn1` [Example 71, 2-Chloro-N-[(1S,2S)-2-[(6-fluoro-1,3-benzothiazol-2-yl)amino]cyclopentyl]-6-(2H-1,2,3-triazol-2-yl)benzamide], the figures for the half-maximal inhibitory concentration (IC50) in test [1] and in test [2] were 4.2 µM and 24 nM, respectively.
As to `O=C(N[C@H]1CCC[C@@H]1Nc1nc2cc(Cl)ccc2s1)c1ccccc1-n1nccn1` [Example 89, N-[(1S,2S)-2-[(5-Chloro-1,3-benzothiazol-2-yl)amino]cyclopentyl]-2-(2H-1,2,3-triazol-2-yl)benzamide], the IC50 in test [1] was 5.4 µM; in test [2], 27 nM.
On the same counts, the results for `Cc1ccc(-n2nccn2)c(C(=O)N[C@H]2CCC[C@@H]2Nc2nc3ccccc3s2)c1` [Example 19, N-[(1S,2S)-2-[(1,3-Benzothiazol-2-yl)amino]cyclopentyl]-5-methyl-2-(2H-1,2,3-triazol-2-yl)benzamide] are 7.3 µM and 15 nM.
Take `O=C(N[C@H]1CCC[C@@H]1Nc1nc2cc(F)ccc2o1)c1ccccc1-n1nccn1` [Example 88, N-[(1S,2S)-2-[(5-Fluoro-1,3-benzoxazol-2-yl)amino]cyclopentyl]-2-(2H-1,2,3-triazol-2-yl)benzamide]: the IC50 in test [1] was 4.2 µM; in test [2] it was 21 nM.
For `COc1cccc(OC)c1C(=O)N(C)[C@H]1CCC[C@@H]1Nc1nc2ccc(F)cc2s1` [Example 34, N-[(1S,2S)-2-[(6-Fluoro-1,3-benzothiazol-2-yl)amino]cyclopentyl]-2,6-dimethoxy-N-methylbenzamide], the IC50 turned out to be 1.1 µM in test [1] and 4.7 nM in test [2].
Taken in the same sequence, the figures for `COc1c(F)cccc1C(=O)N[C@H]1CCC[C@@H]1Nc1nc2ccc(F)cc2s1` [Example 54, 3-Fluoro-N-[(1S,2S)-2-[(6-fluoro-1,3-benzothiazol-2-yl)amino]cyclopentyl]-2-methoxybenzamide] were 3.5 µM and 310 nM.
`O=C(N[C@H]1CCC[C@@H]1Nc1nc2ccc(F)cc2s1)c1cc(Cl)ccc1-n1cccn1` [Example 74, 5-Chloro-N-[(1S,2S)-2-[(6-fluoro-1,3-benzothiazol-2-yl)amino]cyclopentyl]-2-(1H-pyrazol-1-yl)benzamide]: the IC50 in test [1] was 2.1 µM; in test [2], 38 nM.
On to `Cc1cccc(C)c1C(=O)N[C@H]1CCC[C@@H]1Nc1nc2ccc(F)cc2s1` [Example 68, N-[(1S,2S)-2-[(6-Fluoro-1,3-benzothiazol-2-yl)amino]cyclopentyl]-2,6-dimethylbenzamide], for which the IC50 in test [1] was above 10 µM; in test [2], 320 nM.
For `COc1cccc(OC)c1C(=O)N[C@H]1CCC[C@H]1Nc1nc2ccccc2s1` [Example 5, N-[(1S,2R)-2-[(1,3-Benzothiazol-2-yl)amino]cyclopentyl]-2,6-dimethoxybenzamide], the IC50 is 0.51 µM in test [1] and 12 nM in test [2].
On the same counts, the results for `Cc1nnc(-c2ccccc2C(=O)N[C@H]2CCC[C@@H]2Nc2nc3ccc(F)cc3s2)o1` [Example 72, N-[(1S,2S)-2-[(6-Fluoro-1,3-benzothiazol-2-yl)amino]cyclopentyl]-2-(5-methyl-1,3,4-oxadiazol-2-yl)benzamide] are above 10 µM and 14 nM.
Regarding `COc1ccc(F)cc1C(=O)N[C@H]1CCC[C@@H]1Nc1nc2ccc(F)cc2s1` [Example 53, 5-Fluoro-N-[(1S,2S)-2-[(6-fluoro-1,3-benzothiazol-2-yl)amino]cyclopentyl]-2-methoxybenzamide], the IC50 in test [1] is 3.3 µM; in test [2] it was 280 nM.
As for `O=C(N[C@H]1CCC[C@@H]1Nc1nc2ccc(F)cc2s1)c1ccccc1-n1cccn1` [Example 35, N-[(1S,2S)-2-[(6-Fluoro-1,3-benzothiazol-2-yl)amino]cyclopentyl]-2-(1H-pyrazol-1-yl)benzamide], the values for the IC50 in test [1] and in test [2] were 4.3 µM and 6.7 nM, respectively.
